Earlier results in patent publication US20070099940A1, “Pth agonists” (priority 2004, published 2007).

Tested on: fracture incidence
Settings: daily subcutaneous injection for up to 2 years, postmenopausal women

CC[C@H](C)[C@H](NC(=O)[C@H](CCC(=O)O)NC(=O)[C@H](CO)NC(=O)[C@@H](NC(=O)[C@@H](N)CO)C(C)C)C(=O)N[C@@H](CCC(N)=O)C(=O)N[C@@H](CC(C)C)C(=O)N[C@@H](CCSC)C(=O)N[C@@H](Cc1cnc[nH]1)C(=O)N[C@@H](CC(N)=O)C(=O)N[C@@H](CC(C)C)C(=O)NCC(=O)N[C@@H](CCCCN)C(=O)N[C@@H](Cc1cnc[nH]1)C(=O)N[C@@H](CC(C)C)C(=O)N[C@@H](CC(N)=O)C(=O)N[C@@H](CO)C(=O)N[C@@H](CCSC)C(=O)N[C@@H](CCC(=O)O)C(=O)N[C@@H](CCCN=C(N)N)C(=O)N[C@H](C(=O)N[C@@H](CCC(=O)O)C(=O)N[C@@H](Cc1c[nH]c2ccccc12)C(=O)N[C@@H](CC(C)C)C(=O)N[C@@H](CCCN=C(N)N)C(=O)N[C@@H](CCCCN)C(=O)N[C@@H](CCCCN)C(=O)N[C@@H](CC(C)C)C(=O)N[C@@H](CCC(N)=O)C(=O)N[C@@H](CC(=O)O)C(=O)N[C@H](C(=O)N[C@@H](Cc1cnc[nH]1)C(=O)N[C@@H](CC(N)=O)C(=O)N[C@@H](Cc1ccccc1)C(=O)O)C(C)C)C(C)C [PTH(1-34)]
reduction of fracture incidence at non-vertebral sites: 40%
reduction of fracture incidence at the spine: 65%
